Source: ChEMBL document CHEMBL1158199, “Constituents of Ardisia japonica and their in vitro anti-HIV activity” (J Nat Prod, 1996)
Values after ≈ are worked out from the molar mass of the structure shown.

How the values were obtained:
[1] = Inhibition of monoclonal antibody ADP358/HIV1 gp120 interaction at 16 mg/mL
[2] = tested on: Human immunodeficiency virus 1; assay: Antiviral activity against HIV1 MN in human C8166 cells assessed as reduction of antigen gp120 production by ELISA; assay type: functional, organism-based; conditions: Human immunodeficiency virus 1, MN
[3] = Cytotoxicity against human C8166 cells by XTT assay; assay type: cell-based; conditions: read-out: TC50 (the source's name)
[4] = Selectivity index, ratio of […] for human […] cells
[5] = Inhibition of monoclonal antibody ADP358/HIV1 gp120 interaction at 3.2 mg/mL
[6] = tested on: Human immunodeficiency virus 1; assay: Antiviral activity against HIV1 3B in human C8166 cells assessed as neutralization of virus infectivity treated prior infection measured after 60 mins at 37 degC; assay type: functional
[7] = Inhibition of monoclonal antibody ADP358/HIV1 gp120 interaction at 400 mg/mL
[8] = Inhibition of monoclonal antibody ADP358/HIV1 gp120 interaction at 80 mg/mL
[9] = Inhibition of HIV1 recombinant gp120/sCD4 interaction by ELISA
[10] = Inhibition of monoclonal antibody ADP358/HIV1 gp120 interaction at 4 mg/mL
[11] = Inhibition of monoclonal antibody ADP358/HIV1 gp120 interaction at 0.8 mg/mL
[12] = Inhibition of monoclonal antibody ADP358/HIV1 gp120 interaction at 100 mg/mL
[13] = Inhibition of monoclonal antibody ADP358/HIV1 gp120 interaction at 500 mg/mL
[14] = Inhibition of monoclonal antibody ADP358/HIV1 gp120 interaction at 20 mg/mL

Row | inhibition [1] [%] | EC50 [2] [µg/mL] | inhibition [5] [%] | inhibition [7] [%] | inhibition [8] [%] | Activity [9] | inhibition [10] [%] | inhibition [11] [%] | inhibition [12] [%] | inhibition [13] [%] | inhibition [14] [%] | Compound | CC50 [3] [µg/mL] | Selectivity Index [4] | Activity [6] [%]
1 | 57 | 20 (≈ 63.6 µM) | 33 | 84 | 69 | Dose-dependent effect |  |  |  |  |  | O=C1O[C@H]2[C@H](O)[C@@H](O)[C@H](CO)O[C@@H]2c2c1cc(O)c(O)c2O [NORBERGENIN] | > 500 | >25 | 99
2 |  | 40 (≈ 122 µM) |  |  |  |  | 39 | 0 | 84 | 92 | 62 | COc1c(O)cc2c(c1O)[C@@H]1O[C@H](CO)[C@@H](O)[C@H](O)[C@H]1OC2=O [BERGENIN] | > 1000 | >25 | 
3 |  | 200 (≈ 561 µM) |  |  |  |  |  |  |  |  |  | COc1cc2c(c(OC)c1OC)[C@H]1O[C@@H](CO)[C@H](O)[C@@H](O)[C@@H]1OC2=O | 250 (≈ 702 µM) | 1.25 | 
